Laboratory results published in the NIST ThermoML archive (doi:10.1016/j.jct.2012.05.023).
± gives the expanded uncertainty stated by the source.

Key:
[1] = refractive index (Na D-line) (dimensionless); xn = mol fraction of the nth substance listed; conditions: 101.3 kPa, Liquid, Standard Abbe refractometry
[2] = xn = mol fraction of the nth substance listed; conditions: 101.3 kPa, Liquid; for speed of sound: Sing-around technique in a fixed-path interferometer; for mass density: Vibrating tube method

In the case of `c1ccc2c(c1)CCCC2` [1,2,3,4-tetrahydronaphthalene] + CCCCCCCCCCCC, the refractive index ([1]; 293.15 K, x1 = 0.1021) is reported as 1.42964 ± 0.00037, the refractive index ([1]; 293.15 K, x1 = 0.2015) is reported as 1.43768 ± 0.00037 and the refractive index ([1]; 293.15 K, x1 = 0.307) is reported as 1.44691 ± 0.00037. For the same compound, the refractive index ([1]; 293.15 K, x1 = 0.3998) was 1.45578 ± 0.00037, the refractive index ([1]; 293.15 K, x1 = 0.4985) was 1.46621 ± 0.00037 and the refractive index ([1]; 293.15 K, x1 = 0.5961) was 1.47773 ± 0.00037. It also gave a refractive index ([1]; 293.15 K, x1 = 0.7019) of 1.49155 ± 0.00037, a refractive index ([1]; 293.15 K, x1 = 0.8012) of 1.5062 ± 0.00037 and a refractive index ([1]; 293.15 K, x1 = 0.8998) of 1.52267 ± 0.00037. For the same compound, the refractive index ([1]; 293.15 K, x1 = 1) was 1.54155 ± 0.00037, the refractive index ([1]; 303.15 K, x1 = 0.1021) was 1.42538 ± 0.00037 and the refractive index ([1]; 303.15 K, x1 = 0.2015) was 1.43335 ± 0.00037. For the same compound, the refractive index ([1]; 303.15 K, x1 = 0.307) was 1.44249 ± 0.00037, the refractive index ([1]; 303.15 K, x1 = 0.3998) was 1.45151 ± 0.00037 and the refractive index ([1]; 303.15 K, x1 = 0.4985) was 1.46183 ± 0.00037. The refractive index ([1]; 303.15 K, x1 = 0.5961) was 1.47333 ± 0.00037, the refractive index ([1]; 303.15 K, x1 = 0.7019) was 1.48719 ± 0.00037 and the refractive index ([1]; 303.15 K, x1 = 0.8012) was 1.50172 ± 0.00037. The refractive index ([1]; 303.15 K, x1 = 0.8998) was 1.51815 ± 0.00037, the refractive index ([1]; 303.15 K, x1 = 1) was 1.53687 ± 0.00037 and the refractive index ([1]; 313.15 K, x1 = 0.1021) was 1.42102 ± 0.00037. The refractive index ([1]; 313.15 K, x1 = 0.2015) was 1.42887 ± 0.00037, the refractive index ([1]; 313.15 K, x1 = 0.307) was 1.43817 ± 0.00037 and the refractive index ([1]; 313.15 K, x1 = 0.3998) was 1.44709 ± 0.00037. It also gave a refractive index ([1]; 313.15 K, x1 = 0.4985) of 1.45748 ± 0.00037, a refractive index ([1]; 313.15 K, x1 = 0.5961) of 1.46884 ± 0.00037 and a refractive index ([1]; 313.15 K, x1 = 0.7019) of 1.48267 ± 0.00037. The refractive index ([1]; 313.15 K, x1 = 0.8012) was 1.49723 ± 0.00037, the refractive index ([1]; 313.15 K, x1 = 0.8998) was 1.51359 ± 0.00037 and the refractive index ([1]; 313.15 K, x1 = 1) was 1.53216 ± 0.00037. For the same compound, the refractive index ([1]; 323.15 K, x1 = 0.1021) was 1.4166 ± 0.00037, the refractive index ([1]; 323.15 K, x1 = 0.2015) was 1.42456 ± 0.00037 and the refractive index ([1]; 323.15 K, x1 = 0.307) was 1.43374 ± 0.00037. It also gave a refractive index ([1]; 323.15 K, x1 = 0.3998) of 1.44258 ± 0.00037, a refractive index ([1]; 323.15 K, x1 = 0.4985) of 1.45304 ± 0.00037 and a refractive index ([1]; 323.15 K, x1 = 0.5961) of 1.46437 ± 0.00037. For the same compound, the refractive index ([1]; 323.15 K, x1 = 0.7019) was 1.47817 ± 0.00037, the refractive index ([1]; 323.15 K, x1 = 0.8012) was 1.49269 ± 0.00037 and the refractive index ([1]; 323.15 K, x1 = 0.8998) was 1.50898 ± 0.00037. The refractive index ([1]; 323.15 K, x1 = 1) was 1.52752 ± 0.00037, the refractive index ([1]; 333.15 K, x1 = 0.1021) was 1.41223 ± 0.00037 and the refractive index ([1]; 333.15 K, x1 = 0.2015) was 1.42011 ± 0.00037. For the same compound, the refractive index ([1]; 333.15 K, x1 = 0.307) was 1.42925 ± 0.00037, the refractive index ([1]; 333.15 K, x1 = 0.3998) was 1.43819 ± 0.00037 and the refractive index ([1]; 333.15 K, x1 = 0.4985) was 1.44856 ± 0.00037. For the same compound, the refractive index ([1]; 333.15 K, x1 = 0.5961) was 1.45998 ± 0.00037, the refractive index ([1]; 333.15 K, x1 = 0.7019) was 1.47364 ± 0.00037 and the refractive index ([1]; 333.15 K, x1 = 0.8012) was 1.48822 ± 0.00037. The refractive index ([1]; 333.15 K, x1 = 0.8998) was 1.5043 ± 0.00037, the refractive index ([1]; 333.15 K, x1 = 1) was 1.52274 ± 0.00037 and the refractive index ([1]; 343.15 K, x1 = 0.1021) was 1.4078 ± 0.00037. The refractive index ([1]; 343.15 K, x1 = 0.2015) was 1.41563 ± 0.00037, the refractive index ([1]; 343.15 K, x1 = 0.307) was 1.42483 ± 0.00037 and the refractive index ([1]; 343.15 K, x1 = 0.3998) was 1.43363 ± 0.00037. The refractive index ([1]; 343.15 K, x1 = 0.4985) was 1.44396 ± 0.00037, the refractive index ([1]; 343.15 K, x1 = 0.5961) was 1.45528 ± 0.00037 and the refractive index ([1]; 343.15 K, x1 = 0.7019) was 1.46911 ± 0.00037. It also gave a refractive index ([1]; 343.15 K, x1 = 0.8012) of 1.48355 ± 0.00037, a refractive index ([1]; 343.15 K, x1 = 0.8998) of 1.49932 ± 0.00037 and a refractive index ([1]; 343.15 K, x1 = 1) of 1.51795 ± 0.00037. The speed of sound ([2]; 293.15 K, x1 = 0.1021) was 1308.1 ± 1.2 m/s, the speed of sound ([2]; 293.15 K, x1 = 0.2015) was 1318.1 ± 1.2 m/s and the speed of sound ([2]; 293.15 K, x1 = 0.307) was 1331.6 ± 1.2 m/s. It also gave a speed of sound ([2]; 293.15 K, x1 = 0.3998) of 1344 ± 1.2 m/s, a speed of sound ([2]; 293.15 K, x1 = 0.4985) of 1359.7 ± 1.2 m/s and a speed of sound ([2]; 293.15 K, x1 = 0.5961) of 1377 ± 1.2 m/s. For the same compound, the speed of sound ([2]; 293.15 K, x1 = 0.7019) was 1399.4 ± 1.2 m/s, the speed of sound ([2]; 293.15 K, x1 = 0.8012) was 1423.8 ± 1.2 m/s and the speed of sound ([2]; 293.15 K, x1 = 0.8998) was 1453.4 ± 1.2 m/s. It also gave a speed of sound ([2]; 293.15 K, x1 = 1) of 1489.5 ± 1.3 m/s, a mass density ([2]; 293.15 K, x1 = 0.1021) of 763.04 ± 0.24 kg/m3 and a mass density ([2]; 293.15 K, x1 = 0.2015) of 777.99 ± 0.24 kg/m3. It also gave a mass density ([2]; 293.15 K, x1 = 0.307) of 795.31 ± 0.24 kg/m3, a mass density ([2]; 293.15 K, x1 = 0.3998) of 811.97 ± 0.24 kg/m3 and a mass density ([2]; 293.15 K, x1 = 0.4985) of 831.41 ± 0.24 kg/m3. It also gave a mass density ([2]; 293.15 K, x1 = 0.5961) of 852.66 ± 0.24 kg/m3, a mass density ([2]; 293.15 K, x1 = 0.7019) of 878.22 ± 0.24 kg/m3 and a mass density ([2]; 293.15 K, x1 = 0.8012) of 905.15 ± 0.24 kg/m3. For the same compound, the mass density ([2]; 293.15 K, x1 = 0.8998) was 935.03 ± 0.25 kg/m3, the mass density ([2]; 293.15 K, x1 = 1) was 969.52 ± 0.23 kg/m3 and the speed of sound ([2]; 303.15 K, x1 = 0.1021) was 1269.8 ± 1.2 m/s. The speed of sound ([2]; 303.15 K, x1 = 0.2015) was 1280 ± 1.2 m/s, the speed of sound ([2]; 303.15 K, x1 = 0.307) was 1293.4 ± 1.2 m/s and the speed of sound ([2]; 303.15 K, x1 = 0.3998) was 1306 ± 1.2 m/s. It also gave a speed of sound ([2]; 303.15 K, x1 = 0.4985) of 1321.7 ± 1.2 m/s, a speed of sound ([2]; 303.15 K, x1 = 0.5961) of 1339 ± 1.2 m/s and a speed of sound ([2]; 303.15 K, x1 = 0.7019) of 1361.2 ± 1.2 m/s. The speed of sound ([2]; 303.15 K, x1 = 0.8012) was 1385.4 ± 1.2 m/s, the speed of sound ([2]; 303.15 K, x1 = 0.8998) was 1414.7 ± 1.2 m/s and the speed of sound ([2]; 303.15 K, x1 = 1) was 1450.1 ± 1.2 m/s.
